Reference: US7297707B2, “Benzothiazolyl derivatives” (Hoffmann-La Roche Inc., priority 2003, dated 2007)

Tested on: not given
Experiment: not given
Settings: doses of 5, 10 and 20 mg daily; cited from earlier work

SMILES	body weight compared to placebo
Cc1c(C(=O)NN2CCCCC2)nn(-c2ccc(Cl)cc2Cl)c1-c1ccc(Cl)cc1 [SR141716A]	significantly reduced body weight

Target: T1, human cannabis CB1 receptor (Homo sapiens, UniProt P21554)
T1 construct: expressed in transfected cells; host or cells: human embryonic kidney (HEK) cells, Semliki Forest Virus system, membrane preparation
Experiment: Affinity for cannabinoid CB1 receptors, [3H]-CP-55,940 radioligand binding on HEK cell membranes
Settings: affinity for the CB1 receptor, [3H]-CP-55,940, HEK membranes
Experimental: The affinity of the compounds of the invention for cannabinoid CB1 receptors was determined using membrane preparations of human embryonic kidney (HEK) cells in which the human cannabis CB1 receptor is transiently transfected using the Semliki Forest Virus system in conjunction with [3H]-CP-55,940 as radioligand. After incubation of a freshly prepared cell membrane preparation with the [3H]-ligand, with or without addition of compounds of the invention, separation of bound and free ligand was performed by filtration over glassfiber filters. Radioactivity on the filter was measured by liquid scintillation counting.

T1 sequence (P21554 whole entry): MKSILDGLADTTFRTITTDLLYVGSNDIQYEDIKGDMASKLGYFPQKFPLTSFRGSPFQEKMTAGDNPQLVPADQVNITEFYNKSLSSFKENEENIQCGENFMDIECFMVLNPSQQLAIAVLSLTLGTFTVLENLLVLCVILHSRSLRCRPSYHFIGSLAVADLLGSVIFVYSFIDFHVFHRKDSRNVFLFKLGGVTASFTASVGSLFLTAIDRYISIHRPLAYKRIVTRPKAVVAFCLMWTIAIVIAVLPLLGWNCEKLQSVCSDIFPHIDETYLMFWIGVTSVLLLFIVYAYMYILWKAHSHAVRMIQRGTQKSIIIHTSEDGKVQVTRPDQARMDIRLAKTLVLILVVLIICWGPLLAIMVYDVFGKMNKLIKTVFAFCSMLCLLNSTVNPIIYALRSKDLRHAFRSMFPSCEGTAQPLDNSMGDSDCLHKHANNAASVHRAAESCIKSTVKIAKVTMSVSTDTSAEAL

SMILES	IC50
COc1ccc(N(C(=O)c2ccc(Cl)cc2Cl)c2nc3ccc(NC(=O)Cc4ccccc4)cc3s2)cc1OC [Example 52, 2,4-Dichloro-N-(3,4-dimethoxy-phenyl)-N-(6-phenylacetylamino-benzothiazol-2-yl)-benzamide]	1590 nM
Cc1cc(Cl)ccc1N(C(=O)c1ccc(Cl)cc1Cl)c1nc2ccccc2s1 [Example 8, N-Benzothiazol-2-yl-2,4-dichloro-N-(4-chloro-2-methyl-phenyl)-benzamide]	730 nM
COc1ccc(N(C(=O)c2ccccc2Cl)c2nc3ccc(NS(=O)(=O)N(C)C)cc3s2)cc1OC [Example 57, N-[6-(Dimethylamino-1-sulfonylamino)-benzothiazol-2-yl]-2-chloro-N-(3,4-dimethoxy-phenyl)-benzamide]	1420 nM
COc1ccc(N(C(=O)c2ccc(C(F)(F)F)cc2F)c2nc3ccccc3s2)cc1 [Example 9, N-Benzothiazol-2-yl-2-fluoro-N-(4-methoxy-phenyl)-4-trifluoromethyl-benzamide]	1960 nM
CCN(CC)c1ccc(N(C(=O)c2ccc([N+](=O)[O-])cc2Cl)c2nc3ccccc3s2)cc1 [Example 28, N-Benzothiazol-2-yl-2-chloro-N-(4-diethylamino-phenyl)-4-nitro-benzamide]	1380 nM
COc1ccc(N(C(=O)c2ccc(Cl)cc2Cl)c2nc3ccc(N)cc3s2)cc1OC [Example 45, N-(6-Amino-benzothiazol-2-yl)-2,4-dichloro-N-(3,4-dimethoxy-phenyl)-benzamide]	830 nM
COc1ccc(N(C(=O)c2ccc([N+](=O)[O-])cc2Cl)c2nc3ccccc3s2)cc1 [Example 12, N-Benzothiazol-2-yl-2-chloro-N-(4-methoxy-phenyl)-4-nitro-benzamide]	2480 nM
